Patent US20240239774A1, “SOLUBLE ADENYLYL CYCLASE (SAC) INHIBITORS AND USES THEREOF” (Cornell University, priority 2021, published 2024)

Key:
[1] = system: mouse oocytes with capacitated wild-type sperm; test: In vitro fertilization; assay type: cell-based
Protocol: In vitro fertilization: On the day of preparation, sperm were capacitated for 90 min in HTF medium (EmbryoMax Human Tubal Fluid; Merck Millipore). 100 μl drops of HTF were covered with medium/oil mixture (HTF mixed 1:1 with mineral oil), and 10^5 sperm were added to each drop. Cumulus-enclosed oocytes were prepared from the oviducts of superovulated females and added to the drops. […] The number of 2-cell stages was evaluated after 24 hr.

epididymal mouse sperm = test: Ex vivo cAMP in epididymal sperm from injected mice; conditions: 50 mg/kg i.p.; for bicarbonate-induced cAMP increase ex vivo: sperm isolated one hour after injection, minimally diluted
Protocol: Sperm (50 μl) isolated at indicated time points (between 1 hour and 24 hours post-injection) were incubated in […] (1:20 dilution) or 450 μl (1:200 dilution) non-capacitating or capacitating TYH media for 12 minutes. Intracellular cAMP levels were quantified using the Direct cAMP ELISA (Enzo) as above.

human sperm [2] = test: Human sperm hyperactivation (CASA); assay type: cell-based; conditions: for hyperactivation of human sperm in vitro: capacitating media, inhibitor present; for inhibition of hyperactivation following dilution into inhibitor-free media: preincubation with 10 μM Example 1 or 100 nM Example 133, diluted 1:100
Protocol: For human sperm, hyperactivation was assessed via CASA following incubation for 1 hour in non-capacitating HTF buffer or capacitating HTF buffer supplemented with 25 mM HCO3 and 5 mg/ml BSA in the presence or absence of the indicated concentration of sAC inhibitor; 0.1% DMSO was used as vehicle control. For rescue experiments, sperm were incubated in the presence of 5 mM db-cAMP and 500 μM IBMX. 8 μl sperm suspension was placed onto a microscope slide (Gold Seal, Erie Scientific, Portsmouth, NH) and covered with a 18×18 mm coverslip (globe Scientific, Mahway, NJ) to create a […] imaging chamber. CASA was performed following analysis guidelines provided by the company, i.e., 30 frames were acquired at a rate of 60 Hz, at least 200 sperm were analyzed per condition. The following parameters were measured: mean path velocity (VAP, μm/sec), curvilinear velocity (VCL, μm/sec), straight-line velocity (VSL, μm/sec), amplitude of lateral head displacement (ALH, μm), and beat cross frequency (BCF, Hz). Human sperm were considered hyperactivated when presenting VCL ≥150 μm/sec, LIN <50%, and ALH ≥[…].
Motility parameters were determined 1 to 45 minutes post dilution, DMSO-treated non-capacitated and capacitated human sperm were used as control. To calculate the percentage of inhibition, the hyperactivation percentage of sperm diluted in inhibitor-containing- or inhibitor-free media was normalized to the hyperactivation percentage of vehicle-treated capacitated sperm at the respective time point and subtracted from 100%.

[3] = system: wild type (WT) C57B1/6 mouse eyes; test: Intraocular pressure (IOP) study; assay type: in vivo; conditions: one hour post ip injection
Protocol: A mouse was anesthetized via intraperitoneal (ip) injection of room temperature ketamine/xylazine. Anesthesia was assessed by pinching back. The anesthetized mouse was placed on a platform. The anterior chamber was cannulated using a 33-gauge stainless steel needle. The needle was inserted anterior to the limbus and through the cornea. The cannula was connected to a pressure transducer using teflon tubing and was calibrated to a water height equivalent of 0 mm Hg. The transducer signal was amplified, converted to a digital signal, and the voltage was recorded using LabScribe3 software. IOP was calculated by comparing the change in voltage to a standard calibration curve generated at the end of each experiment using the water height column.

mouse sperm = test: Acrosome reaction assay; assay type: cell-based; conditions: 5 μM Example 1 or 10 nM Example 133; capacitating media 90 minutes
Protocol: Zonae pellucidae were isolated from female mice superovulated by intraperitoneal injection of 10 I.U. […] 3 days before the experiment. 14 hours before oocyte isolation, mice were injected with 10 I.U. […]. Oviducts were collected following cervical dislocation. Cumulus-enclosed oocytes were separated from the oviducts and placed into TYH buffer containing 300 μg/ml hyaluronidase. After 15 minutes, cumulus-free oocytes were transferred into fresh buffer and washed twice. Zonae pellucidae and oocytes were separated by shear forces generated by expulsion from […] pasteur pipettes. Zona pellucidae were counted, transferred into fresh buffer and heat-solubilized by incubation for 10 minutes at 65° C.
For analysis of acrosomal exocytosis, 100 μl of 1×10^7 sperm/ml were capacitated for 90 minutes in TYH buffer supplemented with 3 mg/ml BSA and 25 mM NaHCO3 (mouse sperm) or HTF buffer supplemented with […] HSA and 25 mM NaHCO3 (human sperm). sAC inhibitors were added with capacitating buffer; 0.1% DMSO was used as vehicle control. […] After curing, slides were analyzed using a Zeiss LSM 880 Laser Scanning Confocal Microscope; images were captured with two photomultiplier and one Gallium Arsenide Phosphide detector using ZEN Imaging software. For each condition, at least 600 cells were analyzed using ImageJ 1.52.

human sperm [4] = test: Acrosome reaction assay; assay type: cell-based; conditions: 5 μM Example 1 or 10 nM Example 133; 10 μM progesterone
Protocol: For analysis of acrosomal exocytosis, 100 μl of 1×10^7 sperm/ml were capacitated for 90 minutes in TYH buffer supplemented with 3 mg/ml BSA and 25 mM NaHCO3 (mouse sperm) or HTF buffer supplemented with […] HSA and 25 mM NaHCO3 (human sperm). sAC inhibitors were added with capacitating buffer; 0.1% DMSO was used as vehicle control. Acrosome reaction was induced by incubating mouse sperm with 50 mouse solubilized zonae pellucidae for 15 minutes at 37° C., or human sperm with 10 μM progesterone for 30 minutes at 37° C. The sperm suspensions were sedimented by centrifugation at 2,000×g for 5 minutes and the sedimented sperm were resuspended in 100 μl PBS buffer. Samples were air-dried on microscope slides and fixed for 30 minutes in 100% ethanol at room temperature (RT). For acrosome staining, mouse and human sperm were incubated for 30 minutes in the dark with 5 μg/ml PNA-FITC or 5 μg/ml PSA-FITC, respectively, and counterstained with 2 μg/ml DAPI. After curing, slides were analyzed using a Zeiss LSM 880 Laser Scanning Confocal Microscope; images were captured with two photomultiplier and one Gallium Arsenide Phosphide detector using ZEN Imaging software. For each condition, at least 600 cells were analyzed using ImageJ 1.52.

Structure (SMILES) | amount of 2-cell stage oocytes ([1]; 5 μM, control 30%) [%] | fertilization in vitro ([1]; 50 μM) | bicarbonate-responsive cAMP synthesis ex vivo (epididymal mouse sperm; sperm diluted 1:200 ex vivo) | bicarbonate-induced cAMP increase ex vivo (epididymal mouse sperm) | hyperactivation of human sperm in vitro (human sperm [2]) | inhibition of hyperactivation following dilution into inhibitor-free media (human sperm [2]) | intraocular pressure (IOP) [3] | blocking acrosome reaction induced by zona pellucidae (mouse sperm) | blocking acrosome reaction induced by progesterone (human sperm [4]) | cAMP responsiveness ex vivo following dilution (epididymal mouse sperm; 9 hours post-injection, diluted 1:200) | cAMP response ex vivo following dilution (epididymal mouse sperm; sperm isolated 1 hour or 4.5 hours post-injection, diluted 1:200)
Cc1c(Cc2ccccc2)c(-c2cc(Cl)nc(N)n2)nn1C [Example 1, 4-(4-benzyl-1,5-dimethyl-pyrazol-3-yl)-6-chloro-pyrimidin-2-amine] | 10 | fully blocked fertilization | restored | absent | blocked hyperactivation | lost | dose dependently elevates IOP |  |  |  | 
Nc1nc(Cl)cc(-c2nn(C(F)F)cc2Cc2ccccc2OCCN2CCOC[C@H]2CO)n1 [Example 133] |  |  |  | absent | blocked hyperactivation | persisted |  | more potent than Example 1 | more potent than Example 1 | partially recovered | remained inhibited
